#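 Compound exposure: 48 hours, 5 concentrations, 96-well plates. GI50 = concentration required for 50% inhibition of growth. TGI denotes the concentration required for complete inhibition of growth.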
# Key:
# Assay in all cases: NCI anticancer screen, dose series, 48 h
# 786-0 renal = system: 786-0 renal
# A498 renal = system: A498 renal
# A549 NSCLC = system: A549 NSCLC
# ACHN renal = system: ACHN renal
# BT-549 breast = system: BT-549 breast
# CAKI-1 renal = system: CAKI-1 renal
# CCRF-CEM leukemia = system: CCRF-CEM leukemia
# COLO 205 colon = system: COLO 205 colon
# DU-145 prostate = system: DU-145 prostate
# EKVX NSCLC = system: EKVX NSCLC
# HCC-2998 colon = system: HCC-2998 colon
# HCT-116 colon = system: HCT-116 colon
# HCT-15 colon = system: HCT-15 colon
# HL-60(TB) leukemia = system: HL-60(TB) leukemia
# HOP-62 NSCLC = system: HOP-62 NSCLC
# HOP-92 NSCLC = system: HOP-92 NSCLC
# HS 578T breast = system: HS 578T breast
# HT29 colon = system: HT29 colon
# IGROV1 ovarian = system: IGROV1 ovarian
# K-562 leukemia = system: K-562 leukemia
# KM12 colon = system: KM12 colon
# LOX IMVI melanoma = system: LOX IMVI melanoma
# M14 melanoma = system: M14 melanoma
# MALME-3M melanoma = system: MALME-3M melanoma
# MCF7 breast = system: MCF7 breast
# MDA-MB-231 breast = system: MDA-MB-231 breast
# MDA-MB-435 = system: MDA-MB-435
# MOLT-4 leukemia = system: MOLT-4 leukemia
# NCI-H226 lung = system: NCI-H226 lung
# NCI-H23 lung = system: NCI-H23 lung
# NCI-H460 lung = system: NCI-H460 lung
# NCI-H522 lung = system: NCI-H522 lung
# NCI/ADR-RES ovarian = system: NCI/ADR-RES ovarian
# OVCAR-3 ovarian = system: OVCAR-3 ovarian
# OVCAR-4 ovarian = system: OVCAR-4 ovarian
# OVCAR-5 ovarian = system: OVCAR-5 ovarian
# OVCAR-8 ovarian = system: OVCAR-8 ovarian
# PC-3 prostate = system: PC-3 prostate
# RPMI-8226 leukemia = system: RPMI-8226 leukemia
# RXF 393 renal = system: RXF 393 renal
# SF-268 CNS = system: SF-268 CNS
# SF-295 CNS = system: SF-295 CNS
# SF-539 CNS = system: SF-539 CNS
# SK-MEL-2 melanoma = system: SK-MEL-2 melanoma
# SK-MEL-28 melanoma = system: SK-MEL-28 melanoma
# SK-MEL-5 melanoma = system: SK-MEL-5 melanoma
# SK-OV-3 ovarian = system: SK-OV-3 ovarian
# SN12C renal = system: SN12C renal
# SNB-19 CNS = system: SNB-19 CNS
# SNB-75 CNS = system: SNB-75 CNS
# SR leukemia = system: SR leukemia
# SW-620 colon = system: SW-620 colon
# T-47D breast = system: T-47D breast
# TK-10 renal = system: TK-10 renal
# U251 CNS = system: U251 CNS
# UACC-257 melanoma = system: UACC-257 melanoma
# UACC-62 melanoma = system: UACC-62 melanoma
# UO-31 renal = system: UO-31 renal
smiles,measurement,setting,value
CC(=O)N1c2ccc(-c3ccc(C(=O)O)cc3)cc2[C@H](Nc2ccc(Cl)cc2)C[C@@H]1C,GI50,786-0 renal,0.125 µM
same,TGI,786-0 renal,40.2 µM
same,GI50,A498 renal,0.0667 µM
same,TGI,A498 renal,1.71 µM
same,GI50,A549 NSCLC,1.23 µM
same,TGI,A549 NSCLC,28.1 µM
same,GI50,ACHN renal,0.41 µM
same,TGI,ACHN renal,21.9 µM
same,GI50,BT-549 breast,1.27 µM
same,TGI,BT-549 breast,29.6 µM
same,GI50,CAKI-1 renal,0.0457 µM
same,TGI,CAKI-1 renal,> 100 µM
same,GI50,CCRF-CEM leukemia,1.63 µM
same,TGI,CCRF-CEM leukemia,30.3 µM
same,GI50,COLO 205 colon,0.0615 µM
same,TGI,COLO 205 colon,12.8 µM
same,GI50,DU-145 prostate,12.1 µM
same,TGI,DU-145 prostate,> 100 µM
same,GI50,EKVX NSCLC,0.452 µM
same,TGI,EKVX NSCLC,> 64 µM
same,GI50,HCC-2998 colon,0.371 µM
same,TGI,HCC-2998 colon,7.81 µM
same,GI50,HCT-116 colon,0.266 µM
same,TGI,HCT-116 colon,15.2 µM
same,GI50,HCT-15 colon,0.0613 µM
same,TGI,HCT-15 colon,13.5 µM
same,GI50,HL-60(TB) leukemia,0.0384 µM
same,TGI,HL-60(TB) leukemia,11.1 µM
same,GI50,HOP-62 NSCLC,0.0677 µM
same,TGI,HOP-62 NSCLC,22.4 µM
same,GI50,HOP-92 NSCLC,0.024 µM
same,TGI,HOP-92 NSCLC,13.3 µM
same,GI50,HS 578T breast,0.0549 µM
same,TGI,HS 578T breast,> 57.9 µM
same,GI50,HT29 colon,0.122 µM
same,TGI,HT29 colon,29 µM
same,GI50,IGROV1 ovarian,0.531 µM
same,TGI,IGROV1 ovarian,64.9 µM
same,GI50,K-562 leukemia,0.168 µM
same,TGI,K-562 leukemia,> 55.2 µM
same,GI50,KM12 colon,0.924 µM
same,TGI,KM12 colon,20.2 µM
same,GI50,LOX IMVI melanoma,0.0628 µM
same,TGI,LOX IMVI melanoma,3.48 µM
same,GI50,M14 melanoma,0.096 µM
same,TGI,M14 melanoma,23.2 µM
same,GI50,MALME-3M melanoma,0.168 µM
same,TGI,MALME-3M melanoma,3.64 µM
same,GI50,MCF7 breast,0.0273 µM
same,TGI,MCF7 breast,> 100 µM
same,GI50,MDA-MB-231 breast,1.19 µM
same,TGI,MDA-MB-231 breast,> 100 µM
same,GI50,MDA-MB-435,0.233 µM
same,TGI,MDA-MB-435,> 56 µM
same,GI50,MOLT-4 leukemia,1.79 µM
same,TGI,MOLT-4 leukemia,39.2 µM
same,GI50,NCI-H226 lung,1.71 µM
same,TGI,NCI-H226 lung,19.9 µM
same,GI50,NCI-H23 lung,0.918 µM
same,TGI,NCI-H23 lung,44.3 µM
same,GI50,NCI-H460 lung,1.61 µM
same,TGI,NCI-H460 lung,> 55.6 µM
same,GI50,NCI-H522 lung,0.0637 µM
same,TGI,NCI-H522 lung,11.5 µM
same,GI50,NCI/ADR-RES ovarian,0.551 µM
same,TGI,NCI/ADR-RES ovarian,> 100 µM
same,GI50,OVCAR-3 ovarian,0.343 µM
same,TGI,OVCAR-3 ovarian,18.8 µM
same,GI50,OVCAR-4 ovarian,0.686 µM
same,TGI,OVCAR-4 ovarian,> 100 µM
same,GI50,OVCAR-5 ovarian,1.45 µM
same,TGI,OVCAR-5 ovarian,> 46.6 µM
same,GI50,OVCAR-8 ovarian,2.52 µM
same,TGI,OVCAR-8 ovarian,63.5 µM
same,GI50,PC-3 prostate,1.24 µM
same,TGI,PC-3 prostate,28.7 µM
same,GI50,RPMI-8226 leukemia,0.0615 µM
same,TGI,RPMI-8226 leukemia,18.6 µM
same,GI50,RXF 393 renal,5.41 µM
same,TGI,RXF 393 renal,40.9 µM
same,GI50,SF-268 CNS,5.76 µM
same,TGI,SF-268 CNS,> 90.9 µM
same,GI50,SF-295 CNS,0.477 µM
same,TGI,SF-295 CNS,18.1 µM
same,GI50,SF-539 CNS,0.0622 µM
same,TGI,SF-539 CNS,20.2 µM
same,GI50,SK-MEL-2 melanoma,0.581 µM
same,TGI,SK-MEL-2 melanoma,14.3 µM
same,GI50,SK-MEL-28 melanoma,0.494 µM
same,TGI,SK-MEL-28 melanoma,34.8 µM
same,GI50,SK-MEL-5 melanoma,0.357 µM
same,TGI,SK-MEL-5 melanoma,12.6 µM
same,GI50,SK-OV-3 ovarian,0.138 µM
same,TGI,SK-OV-3 ovarian,22.5 µM
same,GI50,SN12C renal,3.89 µM
same,TGI,SN12C renal,99 µM
same,GI50,SNB-19 CNS,1.06 µM
same,TGI,SNB-19 CNS,> 100 µM
same,GI50,SNB-75 CNS,< 0.0165 µM
same,TGI,SNB-75 CNS,> 100 µM
same,GI50,SR leukemia,0.0342 µM
same,TGI,SR leukemia,18.7 µM
same,GI50,SW-620 colon,11.1 µM
same,TGI,SW-620 colon,> 62 µM
same,GI50,T-47D breast,0.108 µM
same,TGI,T-47D breast,31 µM
same,GI50,TK-10 renal,0.0569 µM
same,TGI,TK-10 renal,17.9 µM
same,GI50,U251 CNS,1.55 µM
same,TGI,U251 CNS,32.9 µM
same,GI50,UACC-257 melanoma,0.366 µM
same,TGI,UACC-257 melanoma,21.5 µM
same,GI50,UACC-62 melanoma,0.0261 µM
same,TGI,UACC-62 melanoma,11.5 µM
same,GI50,UO-31 renal,< 0.0251 µM
same,TGI,UO-31 renal,13 µM
